From patent publication US20040116531A1, “Water-free skin care formulations comprising micronized urea and method of manufacturing the same” (priority 2000, published 2004)

Test system: human healthy skin
Conditions: in vivo
Protocol: The study was designed as a single center, randomized, double-blind (investigator-masked) study with intraindividual comparison of treatments to evaluate the cutaneous tolerance of repeated applications of the medical skin care formulations applied under occlusion during 21 days and started with 25 healthy volunteers of either sex between 18 and 65 years old meeting specific inclusion/exclusion criteria.
The volunteers were subjected to an occlusive application of 50 μl of each test formulation on designated test fields on their mid back for 21 consecutive days. The occlusive dressings were removed after 23 hours, and the irritation was evaluated one hour later using a 6-point-score (irritation score):
A Cumulative Irritancy Index (C.I.I.) was calculated for each test preparation for each subject as follows:
C.I.I.=Sum of irritation scores in one individual/number of readings An ‘adjusted C.I.I.’ (C.I.I.*) was calculated by subtracting scores caused by sensitization reactions.
Furthermore, a Mean Cumulative Irritation Index (M.C.I.I.) was calculated for each product by averaging individual C.I.I.s across subjects as follows:
M.C.I.I.=Sum of irritation scores in all individuals/number of readings An ‘adjusted M.C.I.I.’ (M.C.I.I.*) was calculated by subtracting scores caused by sensitization reactions.

## white soft paraffin
  mean scores during the course of the study: no remarkable differences or tendencies
